SMILES strings stand for the structures.

The subject of one series is SH-SY5Y cells. Description: Cell viability XTT assay. The format is cell-based. Particulars: 3 days. In general terms: Tetrazolium dyes change colour on reduction, which living cells bring about.
Another series concerns PC12 cells. Nature of the series: Cell viability XTT assay. The class given is cell-based. Particulars: 3 days.
The next series deals with HeLa cells. Nature of the series: Cell viability XTT assay. The format is cell-based. Particulars: 3 days.
The target in the next series is HIPK2 (Homo sapiens, UniProt Q9H2X6). Description: Kinase-GLO luminescent kinase assay. The format is biochemical. Also on record: made in house; host or cells: E. coli. Particulars: 10 μM compound; means of at least 3 measurements. As to the method:
(§1) Bacterial expression plasmids for GST-DYRK1A-ΔC and GST-DYRK2 have been described earlier. […] Expression in logarithmically growing E. coli culture was performed for 3 h at 37°C (GST-DYRK1A-ΔC and GST-DYRK2), 3 h at 26°C (GST-HIPK2cat), over night at 28°C (GST-CLK1cat) or over night at room temperature (GST-DYRK1Bcat).
(§2) Compounds were screened for inhibitory effects against GST-DYRK1A-ΔC, GST-DYRK1Bcat, GST-DYRK2, GST-CLK1cat or GST-HIPK2cat using the Kinase-GLO Luminescent Kinase Assay from Promega. Assays were performed in a total volume of 10 μL in kinase-buffer (25 mM Hepes pH 7.4, 0.5 mM DTT, 5 mM MgCl2, 5 μM ATP) with appropriate peptide substrates (20 μM DYRKtide for the DYRKs and 100 μM DYRKtide for HIPK2, […]; or 100 μM RS domain-derived peptide for CLK1, […]). Assays were started with this amount of a kinase preparation that consumed approximately 90% of the ATP in the assay (linear range of the kinase titration curve). The reactions were run at room temperature for 30 min before 10 μL Kinase-GLO reagent was added. After incubation at room temperature for additional 10 min, luminescence was recorded for 1 s.

Another series concerns the target DYRK1B (Homo sapiens, UniProt Q9Y463). Description: Kinase-GLO luminescent kinase assay. The format is biochemical. Set-up: made in house; host or cells: E. coli. Particulars: 1 μM compound; means of at least 3 measurements. The procedure: as §1, §2
A general note: In Kinase-Glo more light means more ATP remaining.

In a further series the target is CLK1 (Homo sapiens, UniProt P49759). Nature of the series: Kinase-GLO luminescent kinase assay. The class given is biochemical. Set-up: made in house; host or cells: E. coli. Particulars: 1 μM compound; means of at least 3 measurements. As to the method:
as §1, §2

The target of a further series is T1, DYRK2 (Homo sapiens, UniProt Q92630).
T1 construct: purchased ProQinase (Freiburg, Germany)
T1 sequence (Q92630 1-601): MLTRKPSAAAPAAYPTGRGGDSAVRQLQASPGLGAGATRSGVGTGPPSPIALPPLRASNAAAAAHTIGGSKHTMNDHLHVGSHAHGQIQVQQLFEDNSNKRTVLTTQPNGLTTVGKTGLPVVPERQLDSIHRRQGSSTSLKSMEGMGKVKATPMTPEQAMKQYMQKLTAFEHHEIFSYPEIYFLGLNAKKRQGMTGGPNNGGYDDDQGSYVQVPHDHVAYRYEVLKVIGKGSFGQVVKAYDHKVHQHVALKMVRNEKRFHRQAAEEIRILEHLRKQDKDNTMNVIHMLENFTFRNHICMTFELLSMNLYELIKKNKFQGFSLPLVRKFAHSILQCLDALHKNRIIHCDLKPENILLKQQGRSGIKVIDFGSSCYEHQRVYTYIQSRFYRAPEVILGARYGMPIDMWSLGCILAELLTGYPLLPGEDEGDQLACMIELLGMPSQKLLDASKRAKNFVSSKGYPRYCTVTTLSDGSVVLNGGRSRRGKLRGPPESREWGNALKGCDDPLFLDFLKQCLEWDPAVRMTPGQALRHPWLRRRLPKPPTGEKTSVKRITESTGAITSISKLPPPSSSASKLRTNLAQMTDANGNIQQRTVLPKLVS
Nature of the series: Kinase-GLO luminescent kinase assay. Particulars: 1 μM compound; means of at least 3 measurements. The class given is biochemical. As to the method: as §1, §2

The target of a further series is T2, DYRK1A (Homo sapiens, UniProt Q13627).
T2 construct: purchased ProQinase (Freiburg, Germany)
Nature of the series: Kinase-GLO luminescent kinase assay. The class given is biochemical. Particulars: 1 μM compound; means of at least 3 measurements. The procedure: as §1, §2

Sequence of HIPK2 (Q9H2X6 180-533): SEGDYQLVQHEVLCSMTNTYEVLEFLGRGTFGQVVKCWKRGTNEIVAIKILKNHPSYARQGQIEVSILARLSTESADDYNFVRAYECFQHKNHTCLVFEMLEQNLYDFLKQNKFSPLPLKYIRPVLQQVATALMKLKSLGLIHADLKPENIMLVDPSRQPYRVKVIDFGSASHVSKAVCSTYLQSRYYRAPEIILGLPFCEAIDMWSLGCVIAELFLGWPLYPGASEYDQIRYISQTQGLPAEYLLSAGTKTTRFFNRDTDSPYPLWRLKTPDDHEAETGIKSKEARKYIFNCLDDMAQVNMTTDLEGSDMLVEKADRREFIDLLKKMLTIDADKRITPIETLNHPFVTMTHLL
Sequence of CLK1 (P49759 141-484): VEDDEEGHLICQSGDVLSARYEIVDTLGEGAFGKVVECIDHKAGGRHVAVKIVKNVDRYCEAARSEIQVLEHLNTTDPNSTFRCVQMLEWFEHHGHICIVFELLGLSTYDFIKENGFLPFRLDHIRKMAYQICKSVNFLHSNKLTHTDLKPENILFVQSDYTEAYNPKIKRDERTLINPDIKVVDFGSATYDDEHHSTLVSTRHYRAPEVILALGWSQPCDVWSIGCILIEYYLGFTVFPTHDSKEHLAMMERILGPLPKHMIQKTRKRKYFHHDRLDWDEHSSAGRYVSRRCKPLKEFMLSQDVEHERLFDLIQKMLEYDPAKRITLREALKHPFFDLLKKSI

`Nc1ncnc2c1c(I)cn2[C@@H]1O[C@H](CO)[C@@H](O)[C@H]1O` [IoT, 5-iodotubercidin, reference compound]: the “Viability of treated cells relative to untreated control” value in the series on SH-SY5Y cells (1 μM) is listed as 13%; in the series on SH-SY5Y cells (3 μM), 10%; in the series on SH-SY5Y cells (10 μM), 15%; in the series on PC12 cells (PC12, 1 μM), 62%; in the series on PC12 cells (PC12, 3 μM) it was 17%; with PC12 cells (PC12, 10 μM), 5%. The “Viability of treated cells relative to untreated control” value in the series on HeLa cells (1 μM) came to 67%; with HeLa cells (3 μM), 16%; in the series on HeLa cells (10 μM) it was 18%. Further, the “Residual activity (% of control) HIPK2” value on HIPK2 was 20 % of control. Moreover, the “Residual activity (% of control) DYRK1B” value at DYRK1B is 4 % of control. In addition, the “Residual activity (% of control) CLK1” value on CLK1 is recorded as 4 % of control. Also, the “Residual activity (% of control) DYRK2” value at DYRK2 was 10 % of control. Further, the “Residual activity (% of control) DYRK1A” value on DYRK1A is on record as 13 % of control.

(Values after publication PMC4508061, “Selectivity Profiling and Biological Activity of Novel β-Carbolines as Potent and Selective DYRK1 Kinase Inhibitors” (PLoS ONE, 2015).)
